Results from article PMC8286840, “Identifying SARS-CoV-2 antiviral compounds by screening for small molecule inhibitors of Nsp3 papain-like protease” (Biochemical Journal, 2021).
Counter-ions that a name gives are not always drawn. Like-named read-outs stand apart in the source and are kept apart here.

Tests used:
[1] = biological target: T1, SARS-CoV-2 PLpro (nsp3 1564–1878) (Severe acute respiratory syndrome coronavirus 2, UniProt P0DTD1); experiment: biochemical; set-up: FRET-quenched peptide (Pro3) cleavage by PLpro, 10 min pre-incubation, slope over 20 min, normalised to no-compound control; settings: low concentration screen, read-out: % of control remaining
[2] = biological target: T1, SARS-CoV-2 PLpro (nsp3 1564–1878); experiment: biochemical; set-up: FRET-quenched peptide (Pro3) cleavage by PLpro, 10 min pre-incubation, slope over 20 min, normalised to no-compound control; settings: high concentration screen, read-out: % of control remaining

SMILES: O=C(Oc1cc(S(=O)(=O)c2ccccc2)ccc1[N+](=O)[O-])c1ccc(Cl)cc1 [BTB06584]
- remaining activity at 1.25 µM ([1]; Well no.=5965): 102%
- remaining activity at 3.75 µM ([2]; Well no.=5965): 102%

SMILES: c1ccc2sc(C3(N4CCCCC4)CCCCC3)cc2c1 [BTCP hydrochloride]
- remaining activity at 1.25 µM ([1]; Well no.=325): 101%
- remaining activity at 3.75 µM ([2]; Well no.=325): 96.6%

SMILES: CCN1C(=O)/C(=C/c2ccccc2)SC1=S [BTR-1]
- remaining activity at 1.25 µM ([1]; Well no.=7124): 99.8%
- remaining activity at 3.75 µM ([2]; Well no.=7124): 95.2%

SMILES: c1ccc2nc(C3=NCCN3)ccc2c1 [BU224 hydrochloride]
- remaining activity at 1.25 µM ([1]; Well no.=39): 102%
- remaining activity at 3.75 µM ([2]; Well no.=39): 105%

SMILES: C=CC[N+](C)(C)c1ccc(CCC(=O)CCc2ccc([N+](C)(C)CC=C)cc2)cc1 [BW 284c51]
- remaining activity at 1.25 µM ([1]; Well no.=152): 98.6%
- remaining activity at 3.75 µM ([2]; Well no.=152): 101%

SMILES: CC(N)Cc1c[nH]c2ccc(OCc3cccs3)cc12 (centres unmarked) [BW 723C86]
- remaining activity at 1.25 µM ([1]; Well no.=279): 98.7%
- remaining activity at 3.75 µM ([2]; Well no.=279): 98.9%

SMILES: CC(/C=C/c1cccc(Oc2ccc(F)cc2)c1)N(O)C(N)=O (centres unmarked) [BWB70C]
- remaining activity at 1.25 µM ([1]; Well no.=221): 103%
- remaining activity at 3.75 µM ([2]; Well no.=221): 102%

SMILES: O=C(NCCCNc1nc(Nc2cccc(NC(=O)N3CCCC3)c2)ncc1I)c1cccs1 [BX795]
- remaining activity at 1.25 µM ([1]; Well no.=2931): 99%
- remaining activity at 3.75 µM ([2]; Well no.=2931): 99.2%

SMILES: O=C(Nc1cccc(Nc2ncc(Br)c(NCCc3cnc[nH]3)n2)c1)N1CCCC1 [BX912]
- remaining activity at 1.25 µM ([1]; Well no.=2979): 95.2%
- remaining activity at 3.75 µM ([2]; Well no.=2979): 93.8%

SMILES: Cc1nc(NC(=O)N2CCC[C@H]2C(N)=O)sc1-c1ccnc(C(C)(C)C(F)(F)F)c1 [BYL719]
- remaining activity at 1.25 µM ([1]; Well no.=5163): 102%
- remaining activity at 3.75 µM ([2]; Well no.=5163): 104%

SMILES: CC(=O)O[C@H]1C(=O)[C@@]2(C)[C@H]([C@H](OC(=O)c3ccccc3)[C@]3(O)C[C@H](O)C(C)=C1C3(C)C)[C@]1(OC(C)=O)CO[C@@H]1C[C@@H]2O [Baccatin III]
- remaining activity at 1.25 µM ([1]; Well no.=3099): 97.9%
- remaining activity at 3.75 µM ([2]; Well no.=3099): 99.5%

SMILES: O=c1cc(-c2ccccc2)oc2cc(O)c(O)c(O)c12 [Baicalein]
- remaining activity at 1.25 µM ([1]; Well no.=3087): 103%
- remaining activity at 1.25 µM ([1]; Well no.=3942): 108%
- remaining activity at 3.75 µM ([2]; Well no.=3087): 101%
- remaining activity at 3.75 µM ([2]; Well no.=3942): 104%

SMILES: O=C(O)[C@H]1O[C@@H](Oc2cc3oc(-c4ccccc4)cc(=O)c3c(O)c2O)[C@H](O)[C@@H](O)[C@@H]1O [Baicalin]
- remaining activity at 1.25 µM ([1]; Well no.=5190): 101%
- remaining activity at 3.75 µM ([2]; Well no.=5190): 100%

SMILES: C=C[C@@](C)(/C=C/c1ccc(O)cc1)CCC=C(C)C [Bakuchiol]
- remaining activity at 1.25 µM ([1]; Well no.=4001): 101%
- remaining activity at 3.75 µM ([2]; Well no.=3520): 101%
- remaining activity at 3.75 µM ([2]; Well no.=4001): 97.7%

SMILES: CNC1CCCN(c2c(F)cc3c(=O)c(C(=O)O)cn(C4CC4)c3c2OC)C1 (centres unmarked) [Balofloxacin]
- remaining activity at 1.25 µM ([1]; Well no.=5058): 95.8%
- remaining activity at 3.75 µM ([2]; Well no.=5058): 97.3%

SMILES: O=C(O)CCNC(=O)c1ccc(/N=N/c2ccc(O)c(C(=O)O)c2)cc1 [Balsalazide]
- remaining activity at 1.25 µM ([1]; Well no.=7362): 96.6%
- remaining activity at 3.75 µM ([2]; Well no.=7362): 92.1%

SMILES: CN(C)C(=O)Oc1cc(OC(=O)N(C)C)cc(C(O)CNC(C)(C)C)c1 (centres unmarked) [Bambuterol (hydrochloride)]
- remaining activity at 1.25 µM ([1]; Well no.=6617): 100%
- remaining activity at 3.75 µM ([2]; Well no.=6617): 101%

SMILES: CN(C)C(=O)Oc1cc(OC(=O)N(C)C)cc(C(O)CNC(C)(C)C)c1 (centres unmarked) [Bambuterol]
- remaining activity at 1.25 µM ([1]; Well no.=1770): 92.4%
- remaining activity at 3.75 µM ([2]; Well no.=1770): 92.8%

SMILES: COc1ccc(-c2oc3c(CC=C(C)C)c(O)cc(O)c3c(=O)c2O[C@@H]2O[C@@H](C)[C@H](O)[C@@H](O)[C@H]2O)cc1 [Baohuoside I]
- remaining activity at 1.25 µM ([1]; Well no.=6684): 108%
- remaining activity at 1.25 µM ([1]; Well no.=7047): 101%
- remaining activity at 3.75 µM ([2]; Well no.=6684): 102%
- remaining activity at 3.75 µM ([2]; Well no.=7047): 96.4%
- remaining activity at 3.75 µM ([2]; Well no.=8129): 99.8%

SMILES: COc1cc(NC(=O)CCN2CCC(OC(=O)Nc3ccccc3-c3ccccc3)CC2)c(Cl)cc1CNC[C@H](O)c1ccc(O)c2[nH]c(=O)ccc12 [Batefenterol]
- remaining activity at 1.25 µM ([1]; Well no.=7045): 106%
- remaining activity at 3.75 µM ([2]; Well no.=7045): 109%

SMILES: COc1cc2c(cc1CC=C(C)C)C(=O)C[C@@H](c1ccc(O)cc1)O2 [Bavachinin A]
- remaining activity at 1.25 µM ([1]; Well no.=3243): 100%
- remaining activity at 3.75 µM ([2]; Well no.=3243): 99%

SMILES: CC(C)(C)c1ccc(S(=O)(=O)/C=C/C#N)cc1 [Bay 11-7085]
- remaining activity at 1.25 µM ([1]; Well no.=127): 105%
- remaining activity at 3.75 µM ([2]; Well no.=127): 105%

SMILES: N#Cc1c(Oc2cccc(OS(=O)(=O)CCCC(F)(F)F)c2)cccc1C(F)(F)F [Bay 59-3074]
- remaining activity at 1.25 µM ([1]; Well no.=8043): 96.7%
- remaining activity at 3.75 µM ([2]; Well no.=8043): 96.5%

SMILES: Cc1c(-c2ccc(O)cc2)n(Cc2ccc(OCCN3CCCCCC3)cc2)c2ccc(O)cc12 [Bazedoxifene HCl]
- remaining activity at 1.25 µM ([1]; Well no.=5100): 105%
- remaining activity at 3.75 µM ([2]; Well no.=5100): 105%

SMILES: CCC(=O)OCC(=O)[C@@]1(OC(=O)CC)[C@@H](C)C[C@H]2[C@@H]3CCC4=CC(=O)C=C[C@]4(C)[C@@]3(Cl)[C@@H](O)C[C@@]21C [Beclometasone dipropionate]
- remaining activity at 1.25 µM ([1]; Well no.=7615): 101%
- remaining activity at 3.75 µM ([2]; Well no.=7615): 96.1%

SMILES: C[C@H]1C[C@H]2[C@@H]3CCC4=CC(=O)C=C[C@]4(C)[C@@]3(Cl)[C@@H](O)C[C@]2(C)[C@@]1(O)C(=O)CO [Beclomethasone]
- remaining activity at 1.25 µM ([1]; Well no.=356): 95.3%
- remaining activity at 3.75 µM ([2]; Well no.=356): 100%

SMILES: O=C(/C=C/c1cccc(S(=O)(=O)Nc2ccccc2)c1)NO [Belinostat (PXD101)]
- remaining activity at 1.25 µM ([1]; Well no.=5009): 98.9%
- remaining activity at 3.75 µM ([2]; Well no.=5009): 91.9%

SMILES: CCO[C@@H]1OC(=O)C[C@@H]1NC(=O)[C@@H]1CCCN1C(=O)[C@@H](NC(=O)c1ccc(N)c(Cl)c1)C(C)(C)C [Belnacasan]
- remaining activity at 1.25 µM ([1]; Well no.=6502): 98%
- remaining activity at 1.25 µM ([1]; Well no.=8460): 103%
- remaining activity at 3.75 µM ([2]; Well no.=6502): 98.4%
- remaining activity at 3.75 µM ([2]; Well no.=8460): 110%

SMILES: CCOC(=O)[C@H](CCc1ccccc1)N[C@H]1CCc2ccccc2N(CC(=O)O)C1=O [Benazepril (hydrochloride)]
- remaining activity at 1.25 µM ([1]; Well no.=7786): 104%
- remaining activity at 3.75 µM ([2]; Well no.=7786): 104%

SMILES: CCOC(=O)[C@H](CCc1ccccc1)N[C@H]1CCc2ccccc2N(CC(=O)O)C1=O [Benazepril HCl]
- remaining activity at 1.25 µM ([1]; Well no.=5153): 97.7%
- remaining activity at 3.75 µM ([2]; Well no.=5153): 101%

SMILES: COc1cccc(OC)c1OCCNCC1CSc2ccccc2O1 (centres unmarked) [Benoxathian hydrochloride]
- remaining activity at 1.25 µM ([1]; Well no.=323): 99.7%
- remaining activity at 3.75 µM ([2]; Well no.=323): 93.6%

SMILES: NC(CO)C(=O)NNCc1ccc(O)c(O)c1O (centres unmarked) [Benserazide hydrochloride]
- remaining activity at 1.25 µM ([1]; Well no.=367): 96.9%
- remaining activity at 3.75 µM ([2]; Well no.=367): 96.5%

SMILES: NC(CO)C(=O)NNCc1ccc(O)c(O)c1O (centres unmarked) [Benserazide]
- remaining activity at 1.25 µM ([1]; Well no.=1903): 97.8%
- remaining activity at 3.75 µM ([2]; Well no.=1903): 97.7%
